Structures are written as SMILES.

This data set in a line: PXRD study of crystalline form stability in a 40° C./75% RH stability chamber. The settings on record: capped and uncapped samples, at least one year. In kind it is physicochemical. Here is the method: Remdesivir napsylate Form APO-I can be characterized by a PXRD diffractogram comprising, among other peaks, characteristic peaks, expressed in degrees 2θ (±0.2°), at 5.1°, 6.5° and 13.1°. Preferably, the PXRD diffractogram further comprises at least three peaks, expressed in degrees 2θ (±0.2°), selected from the group consisting of 4.5°, 9.0°, 10.0°, 11.5°, 13.6°, 15.3°, 16.4°, 17.2°, 20.2° and 24.3°. More preferably, the PXRD diffractogram further comprises peaks, expressed in degrees 2θ (±0.2°), at 4.5°, 9.0°, 10.0°, 11.5°, 13.6°, 15.3°, 16.4°, 17.2°, 20.2° and 24.3°.
Remdesivir tosylate Form APO-I can be characterized by a PXRD diffractogram comprising, among other peaks, characteristic peaks, expressed in degrees […] (±0.2°), at 5.5°, 7.7° and 13.1°. Preferably, the PXRD diffractogram further comprises at least three peaks, expressed in degrees 2θ (±0.2°), selected from the group consisting of 4.5°, 6.5°, 9.1°, 9.8°, 16.0°, 16.6°, 17.1°, 17.5°, 18.4° and 20.0°. More preferably, the PXRD diffractogram further comprises peaks, expressed in degrees 2θ (±0.2°), at 4.5°, 6.5°, 9.1°, 9.8°, 16.0°, 16.6°, 17.1°, 17.5°, 18.4° and 20.0°.
The PXRD diffractogram was recorded on a Bruker D8 Discover powder X-ray diffractometer (Bruker-AXS, Karlsruhe, Germany). […] Raw data was evaluated using the program EVA (Bruker-AXS, Karlsruhe, Germany).

As to `CCC(CC)COC(=O)C(C)NP(=O)(OCC1OC(C#N)(c2ccc3c(N)ncnn23)C(O)C1O)Oc1ccccc1.O=S(=O)(O)c1ccc2ccccc2c1` (centres unmarked) [remdesivir napsylate Form APO-I, remdesivir naphthalene-2-sulfonate Form APO-I], the “change in the crystalline form by PXRD” value is listed as “no change in the crystalline form occurred”.
`CCC(CC)COC(=O)[C@H](C)N[P@](=O)(OC[C@H]1O[C@@](C#N)(c2ccc3c(N)ncnn23)[C@H](O)[C@@H]1O)Oc1ccccc1.Cc1ccc(S(=O)(=O)O)cc1` [remdesivir tosylate Form APO-1, remdesivir tosylate Form APO-I]: the “change in the crystalline form by PXRD” value is recorded as “no change in the crystalline form occurred”.

For the origin of these results see US20230279036A1, “Salts of Remdesivir” (Apotex Inc., priority 2020, published 2023).
